Source: patent publication US9676757B2, “Heterocyclic compounds as NaV channel inhibitors and uses thereof” (Merck Patent GmbH, priority 2014, dated 2017)
Structures can show the parent of a compound that is named as a salt. Where two headings read alike, the source gives them in different places.

Key:
Nav1.6 = Nav1.6 (Homo sapiens, UniProt Q9UQD0); assay: Nav two-pulse protocol, IonWorks Quattro electrophysiology; assay type: cell-based; conditions: -120 mV to 0 mV, compound incubated 300 s
Outline: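 Two-pulse protocol on IonWorks Quattro with amphotericin B (200 μg/ml) perforated patch: holding −120 mV, 2.5 s step to 0 mV, 5 ms gap, 20 ms step to 0 mV. Compounds (0.3% DMSO final) incubated 300 s; block taken as Post/Pre peak inward current for each pulse.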

[1] = secondary progressive MS patients; over 2 years; p=0.02; cited from earlier work

Sequence of Nav1.6 (Q9UQD0 whole entry): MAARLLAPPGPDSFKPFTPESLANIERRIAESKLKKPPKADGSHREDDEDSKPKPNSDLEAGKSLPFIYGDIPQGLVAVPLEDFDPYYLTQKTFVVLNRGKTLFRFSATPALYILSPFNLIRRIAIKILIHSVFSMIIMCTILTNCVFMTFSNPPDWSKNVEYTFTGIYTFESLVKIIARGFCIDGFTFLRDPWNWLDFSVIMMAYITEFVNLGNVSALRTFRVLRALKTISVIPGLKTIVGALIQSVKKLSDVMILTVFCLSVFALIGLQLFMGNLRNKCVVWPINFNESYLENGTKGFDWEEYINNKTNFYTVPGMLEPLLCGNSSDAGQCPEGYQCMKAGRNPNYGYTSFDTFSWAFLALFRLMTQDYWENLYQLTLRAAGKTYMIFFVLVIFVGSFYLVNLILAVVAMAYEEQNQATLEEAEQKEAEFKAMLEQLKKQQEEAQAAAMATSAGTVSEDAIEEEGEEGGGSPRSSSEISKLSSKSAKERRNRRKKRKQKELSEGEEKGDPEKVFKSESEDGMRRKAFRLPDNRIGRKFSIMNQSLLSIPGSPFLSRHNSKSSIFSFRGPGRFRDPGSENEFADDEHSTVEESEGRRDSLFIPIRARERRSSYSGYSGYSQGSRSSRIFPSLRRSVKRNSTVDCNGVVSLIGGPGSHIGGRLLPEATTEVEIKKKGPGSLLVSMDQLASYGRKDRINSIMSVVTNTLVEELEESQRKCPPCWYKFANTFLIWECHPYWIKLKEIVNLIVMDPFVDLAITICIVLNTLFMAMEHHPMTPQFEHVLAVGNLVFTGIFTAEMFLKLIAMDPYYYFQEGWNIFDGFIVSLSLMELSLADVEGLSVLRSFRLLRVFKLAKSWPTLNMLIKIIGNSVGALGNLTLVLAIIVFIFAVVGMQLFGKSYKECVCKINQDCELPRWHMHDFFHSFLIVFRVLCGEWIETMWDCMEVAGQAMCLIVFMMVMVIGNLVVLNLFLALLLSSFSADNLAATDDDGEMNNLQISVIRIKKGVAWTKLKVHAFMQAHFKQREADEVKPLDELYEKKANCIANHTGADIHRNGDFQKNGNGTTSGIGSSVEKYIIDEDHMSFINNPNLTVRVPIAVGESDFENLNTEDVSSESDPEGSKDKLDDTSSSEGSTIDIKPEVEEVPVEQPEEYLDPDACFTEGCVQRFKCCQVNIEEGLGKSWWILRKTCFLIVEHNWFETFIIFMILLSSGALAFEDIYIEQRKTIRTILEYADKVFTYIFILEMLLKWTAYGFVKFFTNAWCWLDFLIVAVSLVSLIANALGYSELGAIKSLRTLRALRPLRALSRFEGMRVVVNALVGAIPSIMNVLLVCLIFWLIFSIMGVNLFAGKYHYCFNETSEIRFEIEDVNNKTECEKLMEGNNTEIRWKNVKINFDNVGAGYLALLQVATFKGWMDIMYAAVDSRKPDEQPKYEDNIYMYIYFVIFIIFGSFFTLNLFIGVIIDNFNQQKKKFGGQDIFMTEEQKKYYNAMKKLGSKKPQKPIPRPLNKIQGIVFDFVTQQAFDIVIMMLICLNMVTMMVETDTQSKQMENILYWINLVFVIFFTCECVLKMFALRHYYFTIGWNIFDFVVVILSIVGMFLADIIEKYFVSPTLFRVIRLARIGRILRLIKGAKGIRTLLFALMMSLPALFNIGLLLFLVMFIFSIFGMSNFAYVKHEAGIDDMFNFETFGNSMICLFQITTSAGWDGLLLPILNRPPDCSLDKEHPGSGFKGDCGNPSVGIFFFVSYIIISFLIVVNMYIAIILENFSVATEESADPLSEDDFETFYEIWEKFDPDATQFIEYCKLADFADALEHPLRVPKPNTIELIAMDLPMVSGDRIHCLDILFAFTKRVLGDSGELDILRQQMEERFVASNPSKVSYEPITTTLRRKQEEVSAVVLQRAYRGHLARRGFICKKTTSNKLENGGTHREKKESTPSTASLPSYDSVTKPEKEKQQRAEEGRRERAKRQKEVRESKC

SMILES	IC50 (Nav1.6; read-out: Nav1.6 Tonic) [µM]	IC50 (Nav1.6; read-out: Nav1.6 inac) [µM]	deterioration of the timed 25-foot walk [1]
Cn1ccnc1CNC(=O)C1(C)CCN(Cc2cccc(Oc3ccccc3)c2)C1 (centres unmarked) [Compound 101, 3-Methyl-1-(3-phenoxy-benzyl)-pyrrolidine-3-carboxylic acid (1-methyl-1H-imidazol-2-ylmethyl)-amide]	> 20	1 to 5	–
CC1(C(=O)NCc2ccccn2)CCN(Cc2cnc(-c3ccccc3)s2)C1 (centres unmarked) [Compound 102, 3-Methyl-1-(2-phenyl-thiazol-5-ylmethyl)-pyrrolidine-3-carboxylic acid (pyridin-2-ylmethyl)-amide]	> 20	1 to 5	–
CCC(NC(=O)C1(C)CCN(Cc2cccc(Oc3ccccc3)c2)C1)c1cccnc1 (centres unmarked) [Compound 103, 3-Methyl-1-(3-phenoxy-benzyl)-pyrrolidine-3-carboxylic acid (1-pyridin-3-yl-propyl)-amide]	> 20	> 5	–
CN1CCN(C(=O)C2CCN(Cc3cccc(Oc4ccccc4)c3)C2)CC1=O (centres unmarked) [Compound 104, 1-Methyl-4-[1-(3-phenoxy-benzyl)-pyrrolidine-3-carbonyl]-piperazin-2-one]	> 20	1 to 5	–
O=C(NCc1ccccn1)C1CN(Cc2cccc(Oc3ccccc3)c2)CCO1 (centres unmarked) [Compound 105, 4-(3-Phenoxy-benzyl)-morpholine-2-carboxylic acid (pyridin-2-ylmethyl)-amide]	> 20	1 to 5	–
O=C(C1CN(Cc2cccc(Oc3ccccc3)c2)CCO1)N1CCOCC1 (centres unmarked) [Compound 106, Morpholin-4-yl-[4-(3-phenoxy-benzyl)-morpholin-2-yl]-methanone]	> 20	> 5	–
COCCNC(=O)C1CN(Cc2cccc(Oc3ccccc3)c2)CCO1 (centres unmarked) [Compound 107, 4-(3-Phenoxy-benzyl)-morpholine-2-carboxylic acid (2-methoxy-ethyl)-amide]	> 20	1 to 5	–
CC1(C(=O)N2Cc3ccncc3C2)CCN(Cc2cccc(Oc3ccccc3)c2)C1 (centres unmarked) [Compound 108, (1,3-Dihydro-pyrrolo[3,4-c]pyridin-2-yl)-[3-methyl-1-(3-phenoxy-benzyl)-pyrrolidin-3-yl]-methanone]	> 20	1 to 5	–
O=C(NCc1ccccn1)C1CCN(Cc2cccc(OC(F)(F)F)c2)C1 (centres unmarked) [Compound 109, 1-(3-Trifluoromethoxy-benzyl)-pyrrolidine-3-carboxylic acid (pyridin-2-ylmethyl)-amide hydrochloride]	10 to 20	< 1	–
CC1(C(=O)NCc2ccccn2)CCCN(Cc2cccc(Oc3ccccc3)c2)C1=O (centres unmarked) [Compound 110, 3-Methyl-2-oxo-1-(3-phenoxy-benzyl)-piperidine-3-carboxylic acid (pyridin-2-ylmethyl)-amide]	10 to 20	< 1	–
Cc1cc(C)nc(CNC(=O)C2CCN(Cc3cccc(S(=O)(=O)N4CCCC4)c3)C2)c1 (centres unmarked) [Compound 111, 1-[3-(Pyrrolidine-1-sulfonyl)-benzyl]-pyrrolidine-3-carboxylic acid (4,6-dimethyl-pyridin-2-ylmethyl)-amide hydrochloride]	> 20	1 to 5	–
Nc1nnc(-c2cccc(Cl)c2Cl)c(N)n1 [Lamotrigine]	–	–	reduced the deterioration of the timed 25-foot walk
